From US5859032A, “Pyridine derivative, anti-ulcer drug, and antibacterial drug” (priority 1996, dated 1999)

Experiments:
[1] = test system: stress ulcer formation (rats); experiment: WIS: Restraint and Water Immersion Stress-Induced Ulcer Inhibition Test; format: in vivo, rat (male Crj:SD or Slc:SD); conditions: rat, 100 mg/kg, oral, 7 hours water immersion stress
Description: WIS: Restraint and Water Immersion Stress-Induced Ulcer Inhibition Test
The degree of inhibition of the stress ulcer formation is tested.
Male Crj:SD or Slc:SD rats (6 to 7-week-old) were fasted overnight, but allowed free access to water. Each group has 5 to 8 of these rats. […] To a control group, the vehicle was administered. 10 minutes later, the rats were placed in a stress cage and immersed to the level of xipfoid process in a water bath (21° C.) for 7 hours. At the end of the stress, the rats were sacrificed by inhalation of ether or carbon dioxide. Then, the stomach of each was removed, inflated by injecting 10 ml of 5% formalin neutral buffer solution, and immersed in 1% formalin neutral buffer solution for 30 minutes or more to be fixed. The stomach was incised along the greater curvature and then the length of each erosion in the glandular portion was determined under dissecting microscope. The sum of the length of erosions per stomach was defined as ulcer index (UI).
The effect obtained when 100 mg/kg of the sample compound had been administered was expressed as ulcer formation inhibitory rate (%) as follows:
ulcer formation inhibitory rate (%)=(1-(UI in sample group/UI in control

gastric mucosa = experiment: PD: Gastric Mucosal Integrity Test; format: in vivo, rat (male CDj:SD); design: key: 5: Same as the control with no recognizable damage at all.; 4: Though a slight PD-decreasing tendency suggesting a slight possibility of mucosal damage is found, there is no problem.; 3: Though a weak decrease in PD and a possibility of a weak mucosal damage is recognized, there is no substantial problem.; 2: Medium degree of decrease in PD is found and a mucosal damage is recognized.; 1: Heavy degree of decrease in PD is found and a remarkable mucosal damage is recognized; conditions: rat, 100 mg/kg into chamber, 60 minutes
Description: PD: Gastric Mucosal Integrity Test
In this case, since the sample compound has a necrotizing effect, it is inappropriate as an anti-ulcer medicament.
Therefore, the gastric mucosal potential difference (PD), which reflects the integrity of the gastric mucosa, is measured so as to confirm that the sample compound has no damaging effect on gastric mucosa, which is toxicity at gastric mucosal level.
Male CDj:SD rats (7 to 8-week-old) were fasted overnight, but allowed free access to water, and then, under urethane anesthesia (1.25 g/kg, i.p.), fixed to a cork board on its back. The abdomen of each rat was incised, and a small incision was made in the forestomach. Then, the inside of the stomach was washed with physiological saline heated at 37° C. From the forestomach, along the greater curvature thereof, the stomach was incised without damaging blood vessels. After the height of the cork board was adjusted on a jack, the stomach was mounted on ex vivo chamber. The area of the gastric mucosa exposed to the inside of this chamber was 2.5 cm^2. The inside of the chamber was perfused with physiological saline warmed at 37° C. by micro tube pump. By using an agar bridge containing 3M KCl, the potential difference between the chamber and the abdominal cavity was measured by a PD meter. Here, the rectal temperature was measured to control the body temperature during the experiment. […] To a control, the vehicle was administered.
The change in PD during 60 minutes after the administration of 100 mg/kg of the sample compound was collectively studied and, with reference to the positive control, classified into 5 levels as follows:
5: Same as the control with no recognizable damage at all.
3: Though a weak decrease in PD and a possibility of a weak mucosal damage is recognized, there is no substantial problem.
2: Medium degree of decrease in PD is found and a mucosal damage is recognized.
1: Heavy degree of decrease in PD is found and a remarkable mucosal damage is recognized.

Row | SMILES | WIS: ulcer formation inhibitory rate [1] | PD: change in gastric mucosal potential difference (5 levels) (gastric mucosa)
1 | CC(C)=CCC/C(C)=C/COc1ccc(C(=O)NCCNc2cccnc2)cc1 [Example 7, 3-[2-(4-geranyloxybenzoylamino)ethylamino]pyridine] | 81% | 3
2 | CC(C)=CCC/C(C)=C/COc1ccc(C(=O)NCc2ccncc2)cc1 [Example 3, 4-(4-geranyloxybenzoylaminomethyl)pyridine] | 61% | 3
3 | CC(C)=CCC/C(C)=C/COc1ccc(C(=O)NCC(=O)Nc2ccccn2)cc1 [Example 13, 2-[2-(4-geranyloxybenzoylamino)acetylamino]pyridine] | 33% | 5
4 | CC(C)=CCC/C(C)=C/COc1ccc(C(=O)Nc2cccnc2)cc1 [Example 4, 3-(4-geranyloxybenzoylamino)pyridine] | 39% | 5
5 | CC(C)=CCC/C(C)=C/COc1ccc(C(=O)NCCc2ccncc2)cc1 [Example 2, 4-[2-(4-geranyloxybenzoylamino)ethyl]pyridine] | 77% | 3
6 | CC(C)=CCC/C(C)=C/COc1ccc(C(=O)NCCc2ccccn2)cc1 [Example 1, 2-[2-(4-geranyloxybenzoylamino)ethyl]pyridine] | 50% | 5
7 | COc1ccc(NCCNC(=O)c2ccc(OC/C=C(\C)CCC=C(C)C)cc2)nc1 [Example 8, 2-[2-(4-geranyloxybenzoylamino)ethylamino]-5-methoxypyridine] | 55% | 5
8 | COc1ccc(SCCNC(=O)c2ccc(OC/C=C(\C)CCC=C(C)C)cc2)nc1 [Example 11, 2-[2-(4-geranyloxybenzoylamino)ethylthio]-5-methoxypyridine] | 61% | 4
9 | CC(C)=CCOc1ccc(OCC=C(C)C)c(C(=O)NCCc2ccncc2)c1 [Example 6, 4-[2-(2,5-diprenyloxybenzoylamino)ethyl]pyridine] | 48% | 5
10 | CC(C)=CCC/C(C)=C/COc1ccc(C(=O)NCCNc2cc(C)cc(C)n2)cc1 [Example 10, 2,4-dimethyl-6-[2-(4-geranyloxybenzoylamino)ethylamino]pyridine] | 55% | 3
